How the values were obtained:
cotton aphid = experiment: Test Example 3: insecticidal test on cotton aphid (compound 6, pyridalyl and their mixture; root zone irrigation of cucumber seedlings, 3 days); assay type: in vivo, Aphis qossypii; settings: Pyridalyl alone, 100.0 ppm, 25° C.
Procedure: (§1) [formula] wherein X, Y and E are the following values.
(§2) When the practical miticidal value of the insecticide exceeds E (predictive value), a synergistic effect is obtained.
Each of the compound 6, pyridalyl, and a mixture of the compound 6 and pyridalyl was formulated into a wettable powder in accordance with Formulation Example 2. The respective formulations were diluted with water to an active ingredient concentration as identified in Table 17, and to the respective solutions, a spreader (KUMITEN manufactured by Kumiai Chemical Industry Co., Ltd.) was added at a concentration of 0.05% of the entire amount. The root zone of cucumber seedlings which had been inoculated with larvae of cotton aphid were irrigated with 5 mL of each of the solutions. The treated seedlings were placed in a thermostatic chamber at 25° C. for 3 days, and the survivors were counted for calculation of the insecticidal degree by Equation 3. The test was carried out by two series system. The predictive value in the Table was calculated based on the Colby formula of Equation 1.

two-spotted spider mites [1] = experiment: Test Example 2: miticidal test on two-spotted spider mites (compound 6, tebufenozide and their mixture; soybean seedling dipping, 13 days); assay type: in vivo, Tetranychus urticae; settings: Tebufenozide alone, 100.0 ppm, 25° C.
Source text: as §1
(§3) X: The miticidal value of the component A at a predetermined concentration.
(§4) Y: The miticidal value of the component B at a predetermined concentration.
E: Predictive value (theoretical expected value) of the component A and the component B in combination at the respective predetermined concentrations.
as §2
(§5) Each of the compound 6, tebufenozide, and a mixture of the compound 6 and tebufenozide was formulated into a wettable powder in accordance with Formulation Example 2. The respective formulations were diluted with water to an active ingredient concentration as identified in Table 16, and to the respective solutions, a spreader (KUMITEN manufactured by Kumiai Chemical Industry Co., Ltd.) was added at a concentration of 0.05% of the entire amount. Soybean seedlings which had been inoculated with imago two-spotted spider mites were dipped in each of the resulting solutions and dried in air. The seedlings were placed in a thermostatic chamber at 25° C. for 13 days, and the mite survivors were counted for calculation of the miticidal value by using Equation 2. The test was carried out by one series system. The theoretical value in the Table was calculated based on the Colby formula of Equation 1.

two-spotted spider mites [2] = experiment: Test Example 1: miticidal test on two-spotted spider mites (compound 6, flubendiamide and their mixture; soybean seedling dipping, 13 days); assay type: in vivo, Tetranychus urticae; settings: Flubendiamide alone, 50.0 ppm, 25° C.
Procedure: as §5, with “compound 6, flubendiamide, and a” for “compound 6, tebufenozide, and a”, “6 and flubendiamide was formulated” for “6 and tebufenozide was formulated”, “in Table 15, and to” for “in Table 16, and to”, “system. The predictive value in” for “system. The theoretical value in”, “Colby formula (S. R. Colby (Weeds 15 (1967), 20-22) of Equation” for “Colby formula of Equation”
as §1, §3, §4
E: Predictive value (theoretical expected value) of the component A and the component B in combination at the respective predetermined concentrations. […]

FC(F)(F)c1ccc(OCCCOc2c(Cl)cc(OCC=C(Cl)Cl)cc2Cl)nc1 [pyridalyl]
Insecticidal degree (cotton aphid): 10

CCc1ccc(C(=O)NN(C(=O)c2cc(C)cc(C)c2)C(C)(C)C)cc1 [tebufenozide]
Miticidal value (two-spotted spider mites [1]): 3

Cc1cc(C(F)(C(F)(F)F)C(F)(F)F)ccc1NC(=O)c1cccc(I)c1C(=O)NC(C)(C)CS(C)(=O)=O [flubendiamide]
Miticidal value (two-spotted spider mites [2]): 13
